Results on 13 molecules are retold here after ChEMBL document CHEMBL1155360, “Structural characteristics of flavanones and flavones from Cudrania tricuspidata for neuraminidase inhibition” (Bioorg Med Chem Lett, 2009).

A word on the IC50: it is the concentration that inhibits the measured activity by half. A lower IC50 goes with higher potency. Broadly, the Ki is the equilibrium dissociation constant of an inhibitor or competing ligand from its target.

The test system of assay [1] is Clostridium perfringens. Put plainly: (§1) Inhibition of Clostridium welchii neuraminidase.
Assay [2] can be described thus: as §1. Also noted: species or system Clostridium perfringens.
A short description of assay [3]: Noncompetitive inhibition of Clostridium welchii neuraminidase by Dixon plot. Also noted: species or system Clostridium perfringens.

As to `CC1(C)C=Cc2c(cc3oc(-c4ccc(O)cc4O)cc(=O)c3c2O)O1`, the inhibition result in assay [1] was “Dose-dependent effect”. For the same molecule, the IC50 in assay [2] was found to be 6.01 µM.

As to `CC(C)=CCc1c(-c2ccc(O)cc2O)oc2cc3c(c(O)c2c1=O)C=CC(C)(C)O3` [CUDRAFLAVONE B], the inhibition result in assay [1] was “Dose-dependent effect”. For the same molecule, the midpoint of inhibition in assay [2], the IC50, lay at 10.1 µM. In addition, in assay [3], the inhibitory constant (Ki) is 10.8 µM.

For `O=C1C[C@@H](c2ccc(O)cc2O)Oc2cc(O)cc(O)c21`, in assay [1], the inhibition entry is “Dose-dependent effect”. The same molecule gave an IC50 in assay [2] of 8.14 µM. In assay [3], this molecule yielded an inhibition constant Ki of 7.2 µM.

For the molecule `CC(C)(O)CCc1c(O)cc(O)c2c1O[C@H](c1cc3c(cc1O)OC(C)(C)C=C3)CC2=O`, the inhibition entry in assay [1] was “Dose-dependent effect”. This molecule also showed a half-inhibitory concentration (IC50) in assay [2] of 0.38 µM. In assay [3], this molecule came in with a Ki of 0.19 µM.

Turning to `O=c1cc(-c2ccc(O)cc2O)oc2cc(O)cc(O)c12` [NORARTOCARPETIN], in assay [1], the inhibition result was “Dose-dependent effect”. Also, half-maximal inhibition in assay [2] (IC50) was put at 1.13 µM. In assay [3], this molecule gave a Ki of 1.96 µM.

`O=c1cc(-c2ccc(O)c(O)c2)oc2cc(O)cc(O)c12` [LUTEOLIN]: the inhibition result in assay [1] was “Dose-dependent effect”. The IC50 in assay [2] was 4.6 µM.

Regarding `O=C1C[C@@H](c2ccc(O)c(O)c2)Oc2cc(O)cc(O)c21` [ERIODICTYOL], the inhibition entry in assay [1] is “Dose-dependent effect”. The molecule also displayed an IC50 in assay [2] of 16 µM.

As to `CC(C)=CCc1cc([C@@H]2CC(=O)c3c(cc(O)c(CC=C(C)C)c3O)O2)c(O)cc1O`, the inhibition result in assay [1] was “Dose-dependent effect”. The molecule also displayed an IC50 in assay [2] of 10.7 µM. In assay [3], the Ki is 7.16 µM.

On to `O=C1C[C@@H](c2ccc(O)cc2)Oc2cc(O)cc(O)c21` [NARINGENIN], for which, in assay [1], the inhibition entry was “Dose-dependent effect”. Further, in assay [2], the half-maximal inhibitory concentration (IC50) stood at 57.9 µM.

Regarding `O=c1cc(-c2ccc(O)cc2)oc2cc(O)cc(O)c12` [APIGENIN], the inhibition entry in assay [1] was “Dose-dependent effect”. Also, in assay [2], the midpoint of inhibition, the IC50, lay at 22.1 µM.

Turning to `CC(C)=CCc1c(O)cc2c(c1O)C(=O)C[C@@H](c1cc3c(cc1O)OC(C)(C)C=C3)O2` [CUDRAFLAVANONE A], in assay [1], the inhibition result is “Dose-dependent effect”. The molecule further registered an IC50 in assay [2] of 1.53 µM. This molecule also registered a Ki in assay [3] of 2.01 µM.

As for `CC(C)=CC1Oc2cc(O)ccc2-c2oc3cc4c(c(O)c3c(=O)c21)C=CC(C)(C)O4` (stereo not drawn) [CUDRAFLAVONE A], in assay [1], the inhibition result was “Dose-dependent effect”. This molecule gave an IC50 in assay [2] of 29 µM. In assay [3], this molecule returned a Ki of 44.4 µM.

As to `O=c1c2cc(O)c(O)cc2oc2cc(O)c([C@@H]3O[C@H](CO)[C@@H](O)[C@H](O)[C@H]3O)c(O)c12` [MANGIFERIN], the inhibition entry in assay [1] was “Dose-dependent effect”. Besides, the concentration for half-maximal inhibition (IC50) in assay [2] came out at 11.2 µM.
